How the values were obtained:
[1] = tested on: rat Chronic Constriction Injury model (Bennett Model); assay: von Frey monofilament test of mechanical allodynia (mechanical threshold) in rat chronic constriction injury model; format: in vivo, Wistar rat
Source text: (§1) The inventors evaluated the efficacy of a various alpha-2-adrenergic receptor agonists and compared them against saline in the rat Chronic Constriction Injury model (i.e., Bennett Model) using Wistar rats. […] The doses given would mimic those achievable by a continuous release drug depot containing a biodegradable polymer (7 rats in each group).
(§2) Each group received the treatment indicated above for total of 15 days and subjected to the following two tests: (1) the Hargreaves test on days 7 and 14; and (2) the von Frey test on days 8 and 15.
(§3) Results from another rat chronic constriction injury model study similar to that discussed in Example 5, except some drug compositions having predominantly alpha 1 agonist activity and some drug compositions having predominantly alpha 2 agonist activity were given as indicated in the table below. The doses given would mimic those achievable by a continuous release drug depot containing a biodegradable polymer (7 rats in each group).
(§4) Each group received the treatment indicated above for total of 14 days and the following two tests: (1) the Hargreaves test on days 7 and 14; and (2) the von Frey test on days 8 and 15.

[2] = tested on: rat Chronic Constriction Injury model (Bennett Model); assay: Hargreaves test of thermal hyperalgesia (thermal paw withdrawal latency) in rat chronic constriction injury model; format: in vivo, Wistar rat
Source text: as §1, §2, §3, §4

[3] = 5 mg/kg subcutaneous every day for 15 days, day 15, vs saline
[4] = 100 micrograms/kg subcutaneous every day for 15 days, days 7 and 14, FIG. 36

## N=C(N)N/N=C/c1c(Cl)cccc1Cl [guanabenz]
[1]; 1 mg/kg subcutaneous every day, day 8, vs saline, FIG. 38
  pain behavioral response for mechanical allodynia: decreased mechanical allodynia
[1]; [3]
  pain behavioral response for mechanical allodynia: decreased mechanical allodynia
[2]; 1 mg/kg subcutaneous every day for 15 days, day 7, FIG. 37
  pain behavioral response for thermal hyperalgesia: statistically significant result of decreasing pain responses

## Clc1cccc(Cl)c1N=C1NCCN1 [clonidine, 2,6-dichloro-N-2-imidazolidinyldenebenzenamine]
[1]; 0.02 mg/kg subcutaneous every day for 15 days, day 15, vs saline, FIG. 35
  pain behavioral response for mechanical allodynia: statistically significant results of decreasing pain responses
[1]; 0.02 mg/kg/day subcutaneously, compared to unloaded polymer depots, FIG. 4
  pain behavioral response (measured as a percentage of baseline) for mechanical allodynia: reduced the behavioral response
[2]; 0.02 mg/kg subcutaneous every day for 15 days, days 7 and 14
  pain behavioral response for thermal hyperalgesia: statistically significant result of decreasing pain responses

## Cc1cc(C(C)(C)C)c(O)c(C)c1CC1=NCCN1 [oxymetazoline]
[1]; 0.1 mg/kg subcutaneous every day for 15 days, day 8 and 15, vs saline group, FIG. 38
  pain behavioral response for mechanical allodynia: decreasing pain responses
[1]; 0.3 mg/kg subcutaneous every day for 15 days, day 8 and 15, vs saline group, FIG. 38
  pain behavioral response for mechanical allodynia: decreasing pain responses
[2]; 0.1 mg/kg subcutaneous every day for 15 days, day 7, FIG. 37
  pain behavioral response for thermal hyperalgesia: statistically significant result of decreasing pain responses
[2]; 0.3 mg/kg subcutaneous every day for 15 days, days 7 and 14, FIG. 37
  pain behavioral response for thermal hyperalgesia: statistically significant result of decreasing pain responses

## N=C(N)NC(=O)Cc1c(Cl)cccc1Cl [guanfacine]
[1]; [3]
  pain behavioral response for mechanical allodynia: statistically significant results of decreasing pain responses
[2]; 5 mg/kg subcutaneous every day for 15 days, days 7 and 14, FIG. 36
  pain behavioral response for thermal hyperalgesia: statistically significant result of decreasing pain responses

## Clc1ccc2nsnc2c1NC1=NCCN1 [tizanidine]
[1]; 100 micrograms/kg subcutaneous every day for 15 days, day 15, vs saline, FIG. 35
  pain behavioral response for mechanical allodynia: statistically significant results of decreasing pain responses
[2]; [4]
  pain behavioral response for thermal hyperalgesia: statistically significant result of decreasing pain responses

## CNC[C@H](O)c1cccc(O)c1 [phenylephrine]
[1]; 10 mg/kg subcutaneous every day, day 8, vs saline, FIG. 38
  pain behavioral response for mechanical allodynia: decreased mechanical allodynia
[2]; 2 mg/kg subcutaneous every day for 15 days, day 7, FIG. 37
  pain behavioral response for thermal hyperalgesia: statistically significant result of decreasing pain responses
[2]; 10 mg/kg subcutaneous every day for 15 days, days 7 and 14, FIG. 37
  pain behavioral response for thermal hyperalgesia: statistically significant result of decreasing pain responses

## Cc1cccc(C(C)c2cnc[nH]2)c1C (centres unmarked) [medetomidine]
[1]; 200 micrograms/kg subcutaneous every day for 15 days, day 15, vs saline, FIG. 35
  pain behavioral response for mechanical allodynia: statistically significant results of decreasing pain responses
[2]; [4]
  pain behavioral response for thermal hyperalgesia: statistically significant result of decreasing pain responses
[2]; 200 micrograms/kg subcutaneous every day for 15 days, day 14, FIG. 36
  pain behavioral response for thermal hyperalgesia: statistically significant result of decreasing pain responses
